{"source": "patent US20220409577A1", "about": "“INTRATUMORAL ADMINISTRATION OF ASCORBIC ACID AND QUINONE COMPOUNDS FOR TUMOR TREATMENT” (IC-MedTech Corp., priority 2021, published 2022)", "tested_on": "Glioblastoma cells (GS9L)", "test": "Antitumor activity in a glioblastoma xenograft mouse model (GS9L), intracranial treatment", "type": "in vivo, Balb/c nude mice", "details": "glioblastoma-bearing mice; single intracranial injection on Day 4; TMZ 4 mg/kg; L-ascorbic acid 1.4 or 7 mg/kg + menadione 14 or 70 μg/kg, then oral L-ascorbic acid 15 g/L and menadione 150 mg/L in water daily", "procedure": "Six-week-old male Balb/c nude mice were maintained in specific pathogen-free conditions. Glioblastoma cells (GS9L) were cultured in DMEM supplemented with 10% FBS, penicillin (100 U/mL), and streptomycin (100 mg/L) at 37° C. in a humidified atmosphere containing 5% CO2. After deep anesthesia, the mice were positioned in a stereotactic frame. A small craniectomy was performed at 2-3 mm from the midline and 1 mm anterior to the coronal suture. The glioblastoma cells (5×10^5 cells in 5 μL) were stereotactically injected into the brain parenchyma at a depth of 3 mm on Day 1 using an automated injector.\nVitamin C (L-ascorbic acid) was dissolved in PBS at 10 mM (pH 7.4). Menadione and temozolomide (TMZ) were each dissolved in DMSO at 10 mM as a stock solution and diluted in PBS when in use. The final concentration of DMSO was below 1%. […] The glioblastoma-bearing mice were analyzed on Days 4, 7, 14, 21, and 28 (i.e., 0, 3, 10, 17, and 24 days after drug administration) by MRI to determine the size of the glioblastoma. […]", "data": [{"compound": "Cn1nnc2c(C(N)=O)ncn2c1=O", "note": "[TMZ, temozolomide]", "values": [{"measurement": "side-effects (e.g., fever, tetraplegia, or convulsions)", "value": "experienced side-effects (e.g., fever, tetraplegia, or convulsions)"}]}]}
